# Values joined by “and” are separate entries in the source; they are usually repeats but may differ in a detail not shown here. Equal values may be shown once.
# Assays:
# Assay in all cases: biochemical
# [1] = molecular target: T1, CHEK1 (Homo sapiens, UniProt O14757)
# T1 sequence (O14757 1-476): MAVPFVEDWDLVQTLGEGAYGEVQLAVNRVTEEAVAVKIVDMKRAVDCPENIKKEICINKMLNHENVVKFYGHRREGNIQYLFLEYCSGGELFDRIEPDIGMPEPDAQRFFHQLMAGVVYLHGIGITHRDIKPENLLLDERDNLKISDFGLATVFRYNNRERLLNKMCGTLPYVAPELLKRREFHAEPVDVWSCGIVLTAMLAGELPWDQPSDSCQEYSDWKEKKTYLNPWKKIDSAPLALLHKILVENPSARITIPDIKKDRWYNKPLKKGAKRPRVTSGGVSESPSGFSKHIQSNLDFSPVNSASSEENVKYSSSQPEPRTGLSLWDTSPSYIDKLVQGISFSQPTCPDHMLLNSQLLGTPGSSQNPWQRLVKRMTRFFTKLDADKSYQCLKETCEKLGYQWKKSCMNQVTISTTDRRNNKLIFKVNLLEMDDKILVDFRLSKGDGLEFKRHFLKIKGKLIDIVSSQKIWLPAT
# [2] = molecular target: T2, IKBKE (Homo sapiens, UniProt Q14164)
# T2 sequence (Q14164 1-716): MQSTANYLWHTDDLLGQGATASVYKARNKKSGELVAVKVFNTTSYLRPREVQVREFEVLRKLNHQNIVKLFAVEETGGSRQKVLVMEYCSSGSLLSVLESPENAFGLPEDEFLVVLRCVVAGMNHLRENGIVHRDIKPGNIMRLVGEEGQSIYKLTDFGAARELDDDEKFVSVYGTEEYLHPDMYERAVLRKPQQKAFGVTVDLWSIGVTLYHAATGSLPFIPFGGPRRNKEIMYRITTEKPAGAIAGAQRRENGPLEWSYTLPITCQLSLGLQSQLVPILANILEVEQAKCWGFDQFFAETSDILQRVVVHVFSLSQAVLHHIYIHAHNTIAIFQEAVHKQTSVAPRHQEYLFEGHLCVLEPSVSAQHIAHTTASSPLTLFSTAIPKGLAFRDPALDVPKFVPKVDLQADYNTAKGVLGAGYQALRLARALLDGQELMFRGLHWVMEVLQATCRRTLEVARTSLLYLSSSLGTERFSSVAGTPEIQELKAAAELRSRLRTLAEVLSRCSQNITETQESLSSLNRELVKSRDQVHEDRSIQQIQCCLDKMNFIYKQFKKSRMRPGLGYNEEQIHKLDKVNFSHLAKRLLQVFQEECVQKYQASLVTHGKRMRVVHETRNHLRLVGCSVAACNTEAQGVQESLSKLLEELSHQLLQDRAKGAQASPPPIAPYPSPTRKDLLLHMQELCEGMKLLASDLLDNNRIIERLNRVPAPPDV
# [3] = molecular target: JAK2 (Homo sapiens, UniProt O60674)
# Chain of JAK2 (O60674 whole entry): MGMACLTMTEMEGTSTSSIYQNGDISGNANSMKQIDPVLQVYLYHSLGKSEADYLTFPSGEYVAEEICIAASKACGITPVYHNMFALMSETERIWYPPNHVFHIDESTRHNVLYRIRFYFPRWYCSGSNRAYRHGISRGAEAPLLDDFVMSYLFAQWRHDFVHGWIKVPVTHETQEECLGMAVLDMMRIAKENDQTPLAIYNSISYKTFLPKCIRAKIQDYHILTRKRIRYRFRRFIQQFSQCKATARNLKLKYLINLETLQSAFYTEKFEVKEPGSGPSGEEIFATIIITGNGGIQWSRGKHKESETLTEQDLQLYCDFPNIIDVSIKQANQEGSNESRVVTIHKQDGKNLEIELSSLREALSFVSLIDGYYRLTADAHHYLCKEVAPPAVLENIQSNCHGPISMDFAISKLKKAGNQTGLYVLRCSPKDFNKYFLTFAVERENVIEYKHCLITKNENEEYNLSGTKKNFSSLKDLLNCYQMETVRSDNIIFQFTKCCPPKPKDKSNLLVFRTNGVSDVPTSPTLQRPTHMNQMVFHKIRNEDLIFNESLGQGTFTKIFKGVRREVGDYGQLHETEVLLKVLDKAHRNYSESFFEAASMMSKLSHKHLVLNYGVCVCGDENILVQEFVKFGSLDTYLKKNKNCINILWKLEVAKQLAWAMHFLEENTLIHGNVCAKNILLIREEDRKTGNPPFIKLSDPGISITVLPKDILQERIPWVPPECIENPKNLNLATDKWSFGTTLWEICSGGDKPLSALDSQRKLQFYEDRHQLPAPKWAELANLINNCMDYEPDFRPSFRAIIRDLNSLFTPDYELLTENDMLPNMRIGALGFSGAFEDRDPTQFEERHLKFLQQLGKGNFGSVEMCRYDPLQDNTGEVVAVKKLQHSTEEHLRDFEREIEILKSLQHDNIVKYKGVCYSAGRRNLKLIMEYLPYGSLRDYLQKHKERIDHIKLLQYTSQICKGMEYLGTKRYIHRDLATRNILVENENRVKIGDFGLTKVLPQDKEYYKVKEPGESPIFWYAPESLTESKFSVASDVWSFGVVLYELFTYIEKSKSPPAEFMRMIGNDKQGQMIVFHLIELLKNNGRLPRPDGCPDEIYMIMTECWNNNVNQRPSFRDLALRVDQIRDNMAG
# [4] = molecular target: T3, TAOK3 (Homo sapiens, UniProt Q9H2K8)
# T3 sequence (Q9H2K8 1-898): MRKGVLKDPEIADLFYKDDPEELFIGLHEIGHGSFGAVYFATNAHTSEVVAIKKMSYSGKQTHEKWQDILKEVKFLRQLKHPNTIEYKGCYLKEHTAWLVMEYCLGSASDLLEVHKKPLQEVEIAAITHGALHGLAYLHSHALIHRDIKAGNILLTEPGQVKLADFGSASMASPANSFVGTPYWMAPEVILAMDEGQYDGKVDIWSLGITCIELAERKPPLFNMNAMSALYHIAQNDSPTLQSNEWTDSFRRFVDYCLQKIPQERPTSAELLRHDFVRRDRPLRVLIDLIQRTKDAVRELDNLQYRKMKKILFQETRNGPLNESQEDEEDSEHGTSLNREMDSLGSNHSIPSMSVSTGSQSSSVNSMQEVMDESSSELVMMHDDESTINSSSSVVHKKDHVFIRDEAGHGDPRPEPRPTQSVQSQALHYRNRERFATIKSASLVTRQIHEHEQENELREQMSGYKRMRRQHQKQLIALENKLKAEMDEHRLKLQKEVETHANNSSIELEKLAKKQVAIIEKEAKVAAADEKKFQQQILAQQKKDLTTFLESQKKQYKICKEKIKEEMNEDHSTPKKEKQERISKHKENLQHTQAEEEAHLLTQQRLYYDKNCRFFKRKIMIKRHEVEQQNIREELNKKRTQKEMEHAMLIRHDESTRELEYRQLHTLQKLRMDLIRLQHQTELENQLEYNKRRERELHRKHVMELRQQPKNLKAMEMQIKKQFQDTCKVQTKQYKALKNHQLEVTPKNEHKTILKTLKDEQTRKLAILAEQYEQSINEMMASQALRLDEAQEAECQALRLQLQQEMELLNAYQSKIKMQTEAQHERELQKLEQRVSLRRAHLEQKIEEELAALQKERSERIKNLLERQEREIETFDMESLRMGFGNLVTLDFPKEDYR
SMILES,IC50 [1] [µM],IC50 [2] [µM],IC50 [3],IC50 [4]
CN1CCN(c2ccc(Nc3ncc(C#N)c(Nc4ccccc4C(N)=O)n3)cc2)CC1.Cl [TCMDC-134116],0.22,1.8,0.51 µM and 0.33 µM,
Cl.NCC1(c2nc(-c3ccc(Cl)c(O)c3)c(-c3ccncc3)[nH]2)CCCCC1 [TCMDC-141154],> 20,,> 20 µM,1.8 µM and 0.91 µM
CN(C)CC(O)COc1ccc(Nc2ncc([N+](=O)[O-])c(Nc3ccccc3O)n2)cc1.O=C(O)C(F)(F)F (centres unmarked) [TCMDC-141399],,> 20,,> 20 µM

# Reference: article PMC4774911, “Biochemical Screening of Five Protein Kinases from Plasmodium falciparum against 14,000 Cell-Active Compounds” (PLoS ONE, 2016)
